The source made the active and inactive calls. The rule behind the calls is not given here.

This note sets out measurements from ChEMBL document CHEMBL1154363, “Heterocyclic 1,7-disubstituted indole sulfonamides are potent and selective human EP3 receptor antagonists” (Bioorg Med Chem Lett, 2009).

The target of series [1] is T1, Prostaglandin E2 receptor EP3 subtype (Homo sapiens, UniProt P43115).
T1 sequence (P43115 whole entry): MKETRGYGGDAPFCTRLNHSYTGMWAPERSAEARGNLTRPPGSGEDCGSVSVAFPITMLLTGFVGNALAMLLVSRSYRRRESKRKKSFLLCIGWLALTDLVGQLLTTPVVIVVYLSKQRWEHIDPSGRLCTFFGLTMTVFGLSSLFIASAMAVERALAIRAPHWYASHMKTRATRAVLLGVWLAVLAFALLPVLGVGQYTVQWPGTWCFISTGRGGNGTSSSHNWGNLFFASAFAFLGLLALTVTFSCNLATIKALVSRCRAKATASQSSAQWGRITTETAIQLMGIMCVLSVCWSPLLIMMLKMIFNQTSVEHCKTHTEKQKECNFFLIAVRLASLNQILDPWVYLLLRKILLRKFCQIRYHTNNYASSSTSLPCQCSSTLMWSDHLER
In words: Displacement of [3H]PGE2 from human EP3 receptor. On the technique in general: Loss of bound radioactivity is the signal in a displacement assay; it reports binding, not function.

Series [2] deals with T2, Prostaglandin E2 receptor EP3 subtype (Homo sapiens) (UniProt P43115).
T2 sequence (whole entry): T1 sequence (P43115 whole entry)
In words: Full displacement of [3H]PGE2 from human EP3 receptor at 20 uM.

Series [3] addresses T2, Prostaglandin E2 receptor EP3 subtype (Homo sapiens). Nature of the series: Displacement of [3H]PGE2 from human EP3 receptor in presence of 10% human serum.
Series [4] concerns Platelet. In words: Inhibition of PGE2/collagen-induced platelet aggregation rat platelets rich plasma. The class given is functional.
Series [5] in a line: Metabolic stability in human liver microsomes assessed as compound remaining after 30 mins. The settings on record: read-out: Stability. The class given is ADME, Microsome.
Series [6] deals with T3, Prostaglandin F2-alpha receptor (Homo sapiens, UniProt P43088). Nature of the series: Binding affinity to human FP receptor by radioligand displacement assay.
Series [7] addresses Prostacyclin receptor (Homo sapiens, UniProt P43119). In words: Binding affinity to human IP receptor by radioligand displacement assay.
Series [8] can be described thus: Protein binding in plasma by HSA-HPLC method. The class given is ADME, cell-free. The settings on record: human, read-out: PB (converted).
The nature of series [9]: Metabolic stability in rat liver microsomes assessed as compound remaining after 30 mins. The class given is ADME, Microsome. The following applies: read-out: Stability. (Liver microsomes are vesicles of endoplasmic reticulum, rich in cytochrome P450 enzymes.)
Series [10] addresses T4, Prostaglandin E2 receptor EP4 subtype (Homo sapiens, UniProt P35408). Nature of the series: Binding affinity to human EP4 receptor by radioligand displacement assay.
The target of series [11] is T5, Prostaglandin E2 receptor EP1 subtype (Homo sapiens, UniProt P34995).
T5 sequence (P34995 whole entry): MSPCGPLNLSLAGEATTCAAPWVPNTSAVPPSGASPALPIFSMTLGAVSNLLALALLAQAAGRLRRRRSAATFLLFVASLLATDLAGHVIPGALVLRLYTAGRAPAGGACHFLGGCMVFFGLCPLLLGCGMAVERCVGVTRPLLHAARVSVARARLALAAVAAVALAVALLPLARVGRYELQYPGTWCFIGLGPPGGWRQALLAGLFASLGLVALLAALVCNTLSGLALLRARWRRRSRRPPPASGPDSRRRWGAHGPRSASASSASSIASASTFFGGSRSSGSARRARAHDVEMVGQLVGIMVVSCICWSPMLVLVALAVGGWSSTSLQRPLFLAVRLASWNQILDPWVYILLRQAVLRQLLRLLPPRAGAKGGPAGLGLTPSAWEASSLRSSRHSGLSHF
In words: Binding affinity to human EP1 receptor by radioligand displacement assay.

Series [12] has as its system Platelet. In words: Inhibition of PGE2/collagen-induced platelet aggregation human platelets rich plasma. The class given is functional.
Series [13] addresses Prostaglandin E2 receptor EP2 subtype (Homo sapiens, UniProt P43116). In words: Binding affinity to human EP2 receptor by radioligand displacement assay.
For series [14], the target named is T2, Prostaglandin E2 receptor EP3 subtype (Homo sapiens). Nature of the series: Antagonist activity at human EP3 receptor at 10 uM by FLIPR assay. The class given is functional. More on the design: scale not given: the % may be the effect or the level left.
Series [15] shares this target. In words: Antagonist activity at human EP3 receptor at 0.1 uM by FLIPR assay. More on the design: scale not given: the % may be the effect or the level left. The class given is functional.
Series [16] has the same target. Nature of the series: Antagonist activity at human EP3 receptor at 1 uM by FLIPR assay. The class given is functional. Details: scale not given: the % may be the effect or the level left.
Series [17] addresses T4, Prostaglandin E2 receptor EP4 subtype. In words: Activity at EP4 receptor at 10 uM by FLIPR assay.
For series [18], the target named is T3, Prostaglandin F2-alpha receptor. Nature of the series: Activity at FP receptor at 1 uM by FLIPR assay.
Series [19] shares this target. Nature of the series: Activity at FP receptor at 0.1 uM by FLIPR assay.
In series [20] the target is T6, Prostaglandin E2 receptor EP1 subtype (Homo sapiens) (UniProt P34995).
T6 sequence (whole entry): T5 sequence (P34995 whole entry)
In words: Activity at EP1 receptor at 10 uM by FLIPR assay.

The target of series [21] is T7, Thromboxane A2 receptor (Homo sapiens) (UniProt P21731).
T7 sequence (whole entry): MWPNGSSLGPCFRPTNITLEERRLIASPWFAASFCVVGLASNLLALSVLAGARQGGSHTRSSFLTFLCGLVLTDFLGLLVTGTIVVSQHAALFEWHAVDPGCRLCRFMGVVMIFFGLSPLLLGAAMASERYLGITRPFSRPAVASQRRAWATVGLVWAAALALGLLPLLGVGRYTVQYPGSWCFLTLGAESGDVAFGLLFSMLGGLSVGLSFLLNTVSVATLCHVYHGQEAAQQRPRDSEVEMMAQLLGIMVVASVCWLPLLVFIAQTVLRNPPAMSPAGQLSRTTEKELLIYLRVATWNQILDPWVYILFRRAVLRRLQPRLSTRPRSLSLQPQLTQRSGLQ
In words: Activity at TP receptor at 10 uM by FLIPR assay.

Series [22] deals with T3, Prostaglandin F2-alpha receptor. Nature of the series: Activity at FP receptor at 10 uM by FLIPR assay.
Series [23] deals with T7, Thromboxane A2 receptor (Homo sapiens). In words: Activity at TP receptor at 0.1 uM by FLIPR assay.
For series [24] the target is unchanged. Nature of the series: Activity at TP receptor at 1 uM by FLIPR assay.
The target of series [25] is T4, Prostaglandin E2 receptor EP4 subtype. In words: Activity at EP4 receptor at 1 uM by FLIPR assay.
The target is the same in series [26]. In words: Activity at EP4 receptor at 0.1 uM by FLIPR assay.
Series [27] concerns the target T6, Prostaglandin E2 receptor EP1 subtype (Homo sapiens). Nature of the series: Activity at EP1 receptor at 0.1 uM by FLIPR assay.
For series [28] the target is unchanged. In words: Activity at EP1 receptor at 1 uM by FLIPR assay.

T4 sequence (P35408 whole entry): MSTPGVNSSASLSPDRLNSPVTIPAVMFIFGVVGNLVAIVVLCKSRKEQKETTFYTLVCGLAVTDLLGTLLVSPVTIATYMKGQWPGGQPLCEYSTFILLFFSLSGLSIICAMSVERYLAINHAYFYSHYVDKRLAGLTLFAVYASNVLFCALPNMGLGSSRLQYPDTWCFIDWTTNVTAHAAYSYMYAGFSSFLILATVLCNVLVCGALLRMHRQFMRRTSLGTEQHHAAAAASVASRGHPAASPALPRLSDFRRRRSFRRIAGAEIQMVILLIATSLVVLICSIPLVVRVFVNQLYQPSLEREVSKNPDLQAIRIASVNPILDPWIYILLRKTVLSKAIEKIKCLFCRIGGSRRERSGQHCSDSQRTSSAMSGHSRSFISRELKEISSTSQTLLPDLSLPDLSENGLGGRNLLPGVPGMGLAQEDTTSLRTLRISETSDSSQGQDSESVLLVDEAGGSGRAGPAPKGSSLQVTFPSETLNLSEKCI
T3 sequence (P43088 whole entry): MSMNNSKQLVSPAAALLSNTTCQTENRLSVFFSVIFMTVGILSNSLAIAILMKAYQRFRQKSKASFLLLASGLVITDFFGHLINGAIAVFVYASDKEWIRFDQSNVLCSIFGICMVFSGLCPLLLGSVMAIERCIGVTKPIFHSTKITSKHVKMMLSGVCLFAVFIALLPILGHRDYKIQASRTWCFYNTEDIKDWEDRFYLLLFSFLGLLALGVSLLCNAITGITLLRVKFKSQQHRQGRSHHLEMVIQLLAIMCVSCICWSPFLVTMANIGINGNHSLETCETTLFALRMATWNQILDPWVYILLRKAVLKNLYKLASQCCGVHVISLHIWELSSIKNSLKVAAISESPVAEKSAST
Sequence of Prostacyclin receptor (P43119 whole entry): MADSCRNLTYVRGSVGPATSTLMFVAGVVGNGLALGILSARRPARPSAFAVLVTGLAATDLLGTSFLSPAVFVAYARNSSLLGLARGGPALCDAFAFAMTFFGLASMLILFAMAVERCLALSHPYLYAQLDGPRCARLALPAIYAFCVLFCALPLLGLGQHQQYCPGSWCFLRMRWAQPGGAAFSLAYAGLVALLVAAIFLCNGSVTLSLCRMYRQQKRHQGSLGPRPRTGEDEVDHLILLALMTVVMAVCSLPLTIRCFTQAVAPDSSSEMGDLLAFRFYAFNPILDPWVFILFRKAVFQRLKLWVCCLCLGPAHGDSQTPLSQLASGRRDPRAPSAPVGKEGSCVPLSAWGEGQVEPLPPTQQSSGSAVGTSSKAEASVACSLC
Sequence of Prostaglandin E2 receptor EP2 subtype (P43116 whole entry): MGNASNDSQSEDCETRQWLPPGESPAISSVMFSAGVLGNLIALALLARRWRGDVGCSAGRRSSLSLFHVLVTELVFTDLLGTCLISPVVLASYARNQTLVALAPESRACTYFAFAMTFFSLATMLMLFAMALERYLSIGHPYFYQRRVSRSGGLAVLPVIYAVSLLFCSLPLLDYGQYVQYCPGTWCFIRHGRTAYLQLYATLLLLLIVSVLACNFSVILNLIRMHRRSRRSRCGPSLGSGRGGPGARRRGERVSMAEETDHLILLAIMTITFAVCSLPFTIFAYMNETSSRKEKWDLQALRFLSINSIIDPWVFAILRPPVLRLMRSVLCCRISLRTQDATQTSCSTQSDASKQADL

The term IC50 denotes the concentration that inhibits the measured activity by half. In [1], `Cc1cn(Cc2ccc(Cl)cc2Cl)c2c(-c3nnc(NC(=O)c4ccc(Cl)cc4Cl)o3)cc(F)cc12` came in with a half-maximal inhibitory concentration (IC50) of 1320 nM. Moreover, the outcome in [2] was inactive. The fold change (FC) in [3] worked out at 1.

For `Cc1cn(Cc2ccc(Cl)cc2Cl)c2c(-c3cc(NS(=O)(=O)c4ccc(F)c(F)c4)no3)cc(F)cc12`, the IC50 in [4] is 3850 nM; in series [6] it was 600 nM; in [7], over 20 µM; in series [1], 1 nM; in [10], 18.6 µM; in series [11] it was over 20 µM. The IC50 in series [12] was 785 nM; in series [13], 19.8 µM. Moreover, the values for the remaining at 0.5 h in [5] and in series [9] were 46.8% and 51%, respectively. In addition, the fraction unbound in series [8] was 0.016. Further, the fold change (FC) in series [3] stood at 12.

`Cc1cn(Cc2ccc(Cl)cc2Cl)c2c(-c3nnc(NS(=O)(=O)c4cc(Cl)c(Cl)s4)o3)cc(F)cc12`: the remaining at 0.5 h was 62.7% in series [5] and 46.4% in series [9]. Further, the IC50 in series [1] amounted to 10 nM. For the same compound, the fraction unbound in [8] was 0.002. The fold change (FC) in series [3] stood at 27.

As for `Cc1cn(Cc2ccc(Cl)cc2Cl)c2c(-c3cc(NS(=O)(=O)c4cc(Cl)c(Cl)s4)no3)cc(F)cc12`, the IC50 amounted to 1040 nM in series [4] and 5 nM in series [1]. The remaining at 0.5 h in series [5] was 46.8%; in series [9], 57.8%. Besides, in [3], the fold change (FC) came out at 67.

Consider `Cc1cn(Cc2ccc3c(c2)OCCO3)c2c(-c3nnc(NS(=O)(=O)c4ccc(F)cc4)o3)cc(F)cc12`, for which the Activity in series [14] was determined as 48%; in series [15], 11%.

For `COc1cccc(Cn2cc(C)c3cc(F)cc(-c4nnc(NS(=O)(=O)c5ccc(F)cc5)o4)c32)c1`, the Activity in [14] came to 99%; in series [15] it was 62%.

Consider `COc1ccc(Cn2cc(C)c3cc(F)cc(-c4nnc(NS(=O)(=O)c5ccc(F)c(F)c5)o4)c32)cc1`, for which the Activity in series [15] was determined as 35%; in series [16] it was 99%.

In the case of `Cc1cn(Cc2ccc(Cl)cc2Cl)c2c(-c3nnc(NS(=O)(=O)c4ccc(Cl)c(Cl)c4)o3)cc(F)cc12`, the half-maximal inhibitory concentration (IC50) in [4] is 2860 nM; in series [1], 4 nM. Also, the Activity is -7% in series [17]; -2% in series [18]; -15% in series [19]; 100% in series [20]; 56% in series [21]; -1% in series [22]. Also, the Activity in series [23] was 3%; in series [24] it was 0%; in series [25] it was -22%; in [26] it was -26%; in [27] it was -2%; in [28] it was 16%. Also, the remaining at 0.5 h in [5] is 72.1%; in series [9] it was 44.8%. Moreover, the fraction unbound in series [8] is 0.028. In addition, the fold change (FC) in [3] worked out at 3.5.

Consider `Cc1cn(Cc2ccc(Cl)cc2Cl)c2c(-c3nnc(NS(=O)(=O)c4cc(F)c(F)cc4F)o3)cc(F)cc12`, for which the Activity is 84% in series [17]; 21% in series [18]; 5% in series [19]; 99% in series [20]; 99% in series [21]; 64% in [22]. In addition, the Activity in [23] turned out to be 3%; in series [24] it was 11%; in series [25] it was 15%; in [26], 9%; in series [27] it was 25%; in series [28], 94%. The compound further yielded an IC50 in series [1] of 2 nM. For the same compound, in series [8], the fraction unbound was 0.006. For the same compound, the fold change (FC) in series [3] turned out to be 22.

`Cc1cn(Cc2ccc(Cl)cc2Cl)c2c(-c3nnc(NS(=O)(=O)c4ccc(F)c(F)c4)o3)cc(F)cc12`: the values for the IC50 in series [4] and in series [1] were 2710 nM and 20 nM, respectively. Besides, the Activity in series [17] was 32%; in series [18], 26%; in [19], 22%; in series [20], 100%; in series [21] it was 89%; in [22] it was 41%. The Activity was -5% in series [23]; 9% in series [24]; 26% in series [25]; 13% in [26]; -11% in series [27]; 30% in series [28]. Besides, the remaining at 0.5 h in series [9] was 42.5%. The fold change (FC) in series [3] was 2.4.
